Residues, ends and D or L forms follow the SMILES beside them.

Test [1] has as its system E. coli cells. Kind of test: Whole-cell ELISA binding of biotinylated peptide. As to conditions: EC5 50 μg/ml; p<0.001. The procedure:
(§1) ELISA. Log-phase cultures of bacteria were centrifuged at 3,000×g. The cell pellet was resuspended and 10-fold serial dilutions were made in 1×PBS. Bacterial cell suspension at a concentration of 10^3 CFU was coated to the wells of 96-well micro plate (Becton Dickinson, Bedford, Mass.) and incubated overnight at RT. Subsequently, cells were fixed in ethanol (Aldrich Chemical Company, Milwaukee, Wis.) for 10 minutes (min) and the plates were air-dried. Wells were blocked with 5% bovine serum albumin (BSA) (Sigma, St. Louis, Mo.) for 60 min at room temperature (RT), rinsed with PBS and then EC5 peptide suspended in phosphate buffered saline (PBS) at a final concentration of 50 μg/ml were added to all the wells and incubated for 15 min. Following incubation, wells were washed 3 times with PBST buffer (PBS pH 7.4, 0.01% Tween 20). The wells were further incubated with 1:10,000 dilution of streptavidin-HRP conjugate (Upstate, Temecula, Calif.) for 15 min and washed with PBST buffer. Tetramethylbenzidine (TMB) membrane peroxidase substrate (Zymed Laboratories, Carlsbad, Calif.) system was used to detect the enzyme label in accordance with the manufacturer's instructions. The color development in the 96-well plate was recorded by using SYNERGY 4™ BioTek micro plate reader (BioTek Instruments, Winooski, Vt.) at 490 nm wavelength.

In test [2] the test system is K pneumoniae. Kind of test: Whole-cell ELISA binding of biotinylated peptide. The conditions noted are these: EC5 50 μg/ml. The procedure: as §1
A general note: An ELISA detects its analyte on a solid surface through an enzyme-linked reagent.

Test [3] deals with S. epidermidis. The test is described as follows: Whole-cell ELISA binding of biotinylated peptide. As to conditions: EC5 50 μg/ml. The procedure:
as §1

Test [4] has as its system B. cereus. Kind of test: Whole-cell ELISA binding of biotinylated peptide. As to conditions: EC5 50 μg/ml. The procedure: as §1
In test [5] the test system is S. aureus. The test is described as follows: Whole-cell ELISA binding of biotinylated peptide. As to conditions: EC5 50 μg/ml. The procedure: as §1
Test [6] relates to P. aeruginosa cells. The test is described as follows: Whole-cell ELISA binding of biotinylated peptide. The conditions noted are these: EC5 50 μg/ml; p<0.05. The procedure: as §1
Test [7] has as its system E. coli. Kind of test: Outer membrane permeabilization (NPN uptake) assay. It is filed as cell-based. The procedure: (§2) Membrane-permeabilizing activity of the peptide was determined using the fluorescent dye N-phenyl-1-napthylamine (NPN) assay, as described earlier (Loh et al. (1984) Antimicrob. Agents Chemother. 26, 546-551), with intact cells of E. coli and P. aeruginosa. The increase in fluorescence due to partitioning of NPN uptake into outer membrane (OM) was measured by addition of increasing concentrations of peptide. Polymyxin B (PMB) was taken as a positive control due to its outer membrane permeabilizing properties. All experiments were performed three times. S. aureus was used as a negative control.
(§3) Outer membrane permeabilizing activity of EC5 against E. coli and P. aeruginosa was determined using the fluorescent dye N-phenyl-1-napthylamine (NPN) assay. The outer membrane of a bacterial cell is impermeable to NPN under normal conditions. However permeabilization of outer membrane by anti-microbial peptides allows the uptake of NPN thereby leading to increase in fluorescence in the cell. […] The outer membrane permeabilizing activity of EC5 was compared to polymyxin B, a well studied membrane permeabilising agent (Daugelavicius, R., et al., (2000) Antimicrob. Agents Chemother. 44, 2969-2978).

The subject of test [8] is P. aeruginosa. Kind of test: Outer membrane permeabilization (NPN uptake) assay. Type of test: cell-based. The procedure:
as §2, §3

Test [9] deals with E. coli. Kind of test: Membrane permeability by PI and SYTO9 uptake (LIVE/DEAD BACLIGHT). Type of test: cell-based. As to conditions: SYTO9 and PI staining. The procedure:
(§4) The effects of EC5 on the membrane integrity of E. coli and P. aeruginosa cells were assessed using the LIVE/DEAD BACLIGHT™ kit (Invitrogen, Oregon) according to the manufacturer's protocol. Membrane integrity of the cells after the addition of different concentrations of peptide EC5 was measured using fluorescence micro plate reader (BioTek Instruments, Winooski, Vt.). Experiments were done in triplicates. PMB was used as a positive control.
(§5) The membrane permeabilizing activity of EC5 was also studied using the SYTO9 and PI staining method. SYTO9 stain labels both live and dead bacteria when alone, but propidium iodide stains only cells with damaged membranes, reducing the level of green fluorescent SYTO9 when both the dyes are present. […] The ratio of green versus red fluorescence can be calculated as a measure of live bacteria. […] Polymyxin B, an AMP with a net charge of +5 with membrane permeabilizing activity was used as positive control.

Test [10] has as its system P. aeruginosa. The description is as above. Type of test: cell-based. As to conditions: SYTO9 and PI staining. The procedure: as §4, §5
In test [11] the test system is E. coli. The test is described as follows: Qdot-based fluorometry binding assay. As to conditions: EC5 50 μg/ml; p<0.0001. The procedure:
(§6) The assay was carried out as described earlier (21,24). Bacterial cell suspensions at a concentration of 10^3 CFU were incubated with EC5 (50 μg/ml) in an eppendorf tube at room temperature for 60 min. Following three washes with 1×PBS pH 7.4 the pellet was resuspended in […] of 1:10,000 dilution of streptavidin-conjugated Q dots (QD 605) solution (Invitrogen, Gaithersburg, Md.). The fluorometric counts were measured using SYNERGY 4™ BioTek micro plate reader (BioTek Instruments, Winooski, Vt.).
(§7) Binding of the peptide to the bacteria was detected using Qdot-nanocrystal cores conjugated to streptavidin. Analysis of the bacterial suspension binding to the peptide was performed in a micro-well plate using a fluorescence plate reader (SYNERGY 4™, Biotek, USA). Excitation was set to a spectral range of 360-485 nm and emission was at 605 nm. […] The analysis also confirmed that EC5 binds to P. aeruginosa cells.

Test [12] deals with P. aeruginosa cells. Kind of test: Qdot-based fluorometry binding assay. The conditions noted are these: EC5 50 μg/ml. The procedure:
as §6, §7

Setting [13] is: increasing peptide concentrations.

With `CC[C@H](C)[C@H](NC(=O)[C@H](CCCCN)NC(=O)[C@H](CCCNC(=N)N)NC(=O)[C@H](Cc1ccccc1)NC(=O)[C@H](CC(C)C)NC(=O)[C@H](CC(C)C)NC(=O)[C@@H](N)CCCNC(=N)N)C(=O)N[C@@H](CCCNC(=N)N)C(=O)N[C@@H](CCCNC(=N)N)C(=O)N[C@@H](CC(C)C)C(=O)N[C@@H](CCCCN)C(=O)N[C@@H](CCCNC(=N)N)C(=O)O` [EC5, RLLFRKIRRLKR] (H-RLLFRKIRRLKR-OH; N-terminus and C-terminus assumed), the “binding to E. coli cells” value in [1] is reported as “significant binding efficiency”. In addition, the “binding to K pneumoniae” value in test [2] is recorded as “did not bind”. Moreover, the “binding to S. epidermidis” value in test [3] is “did not bind”. Besides, the “binding to B. cereus” value in test [4] was “did not bind”. In addition, the “binding to S. aureus” value in test [5] is reported as “did not bind”. Moreover, the “binding to P. aeruginosa cells” value in [6] is “showed binding”. Moreover, the “increase in NPN fluorescence compared with polymyxin B” value in [7] (at similar concentrations) and in [8] (at similar concentrations) was “higher than for polymyxin B” throughout. For the same compound, the “NPN fluorescence (outer membrane permeabilization)” value in [7] (setting [13]) and in test [8] (setting [13]) was “dose-dependent increase in fluorescence” each time. Moreover, the “concentration showing maximum permeability of cells” value in test [9] stood at 6.25 µg/mL; in [10] it was 12.5 µg/mL. In addition, the “binding to E. coli (fluorometric counts)” value in test [11] is given as “able to bind”. The “binding to P. aeruginosa cells (fluorometric counts)” value in [12] is recorded as “binds”.
